Legend:
NCI-H2369 (Mesothelioma) = assay: combination Emax (second highest fraction inhibited in the dose matrix, 72 h); higher = more inhibition; extreme values may be limits of the assay
Summary of the method: (§1)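 After 24 hours at 37°C and 5% CO2 in 1536-well plates, cells in DMEM/F12 or RPMI plus 10% FBS received two-drug dose matrices for 72 hours. Viability came from CellTiter-Glo 2.0 luminescence and was scaled as inhibition, anchored at 0 by vehicle wells and at 1 by blank wells. Combination Emax is taken as the second-highest inhibition in the matrix, and Bliss excess as the observed combination effect less EA + EB − EA·EB, with EA and EB the single-agent effects.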

[1] = tested on: JiyoyeP-2003 (Burkitt's Lymphoma); assay: as above
Summary of the method: as §1

Structure (SMILES) | combination Emax (NCI-H2369 (Mesothelioma)) | combination Emax [1]
CN(CCO)CC[C@H](CSc1ccccc1)Nc1ccc(S(=O)(=O)NC(=O)c2ccc(N3CCC([C@@H](O)c4ccccc4-c4ccc(Cl)cc4)CC3)cc2)cc1S(=O)(=O)C(F)(F)F [AZD4320] + C[C@@H]1COCCN1C2=NC(=NC(=C2)C3(CC3)[S@](=N)(=O)C)C4=C5C=CNC5=NC=C4 [AZD6738] (first compound max 1 µM, 7x7, partner max 10 µM) | 0.324 | 0.972
CN(CCO)CC[C@H](CSc1ccccc1)Nc1ccc(S(=O)(=O)NC(=O)c2ccc(N3CCC([C@@H](O)c4ccccc4-c4ccc(Cl)cc4)CC3)cc2)cc1S(=O)(=O)C(F)(F)F [AZD4320] + C=CCn1c(=O)c2cnc(Nc3ccc(N4CCN(C)CC4)cc3)nc2n1-c1cccc(C(C)(C)O)n1 [AZD1775] (first compound max 1 µM, partner max 1 µM) | 0.189 | 0.992
Cc1c2c(nn1C)CSCc1cc(n(C)n1)CSc1cc(c3ccccc3c1)OCCCc1c(C(=O)O)n(C)c3c-2c(Cl)ccc13 [AZD5991] + C[C@@H]1COCCN1C2=NC(=NC(=C2)C3(CC3)[S@](=N)(=O)C)C4=C5C=CNC5=NC=C4 [AZD6738] (first compound max 1 µM, 7x7, partner max 10 µM) | 0.247 | 0.965
CC1(C)CCC(CN2CCN(c3ccc(C(=O)NS(=O)(=O)c4ccc(NCC5CCOCC5)c([N+](=O)[O-])c4)c(Oc4cnc5[nH]ccc5c4)c3)CC2)=C(c2ccc(Cl)cc2)C1 [Venetoclax] + COc1cc(Nc2ncc3c(n2)-c2ccc(Cl)cc2C(c2c(F)cccc2OC)=NC3)ccc1C(=O)O [Alisertib] (first compound max 1 µM, 7x7, partner max 10 µM) | 0.327 | 0.852
CC1(C)CCC(CN2CCN(c3ccc(C(=O)NS(=O)(=O)c4ccc(NCC5CCOCC5)c([N+](=O)[O-])c4)c(Oc4cnc5[nH]ccc5c4)c3)CC2)=C(c2ccc(Cl)cc2)C1 [Venetoclax] + Cn1cnc2c(F)c(Nc3ccc(Br)cc3Cl)c(C(=O)NOCCO)cc21 [Selumetinib] (first compound max 1 µM, 7x7, partner max 3 µM) | 0.119 | 0.304
CN(CCO)CC[C@H](CSc1ccccc1)Nc1ccc(S(=O)(=O)NC(=O)c2ccc(N3CCC([C@@H](O)c4ccccc4-c4ccc(Cl)cc4)CC3)cc2)cc1S(=O)(=O)C(F)(F)F [AZD4320] + C1CN(CCC1(C(=O)N[C@@H](CCO)C2=CC=C(C=C2)Cl)N)C3=NC=NC4=C3C=CN4 [Capivasertib] (first compound max 1 µM, 7x7, partner max 3 µM) | 0.859 | 0.773
Cc1c2c(nn1C)CSCc1cc(n(C)n1)CSc1cc(c3ccccc3c1)OCCCc1c(C(=O)O)n(C)c3c-2c(Cl)ccc13 [AZD5991] + CCN(CCO)CCCOc1ccc2c(Nc3cc(CC(=O)Nc4cccc(F)c4)[nH]n3)ncnc2c1 [AZD2811] (first compound max 1 µM, 7x7, partner max 1 µM) | 0.176 | 0.803
CN(CCO)CC[C@H](CSc1ccccc1)Nc1ccc(S(=O)(=O)NC(=O)c2ccc(N3CCC([C@@H](O)c4ccccc4-c4ccc(Cl)cc4)CC3)cc2)cc1S(=O)(=O)C(F)(F)F [AZD4320] + Cc1cc2ncnn2cc1Nc1ncc2c(n1)n(C1CCOCC1)c(=O)n2C [AZD7648] (first compound max 1 µM, 7x7, partner max 10 µM) | 0.0705 | 0.639
CC1(C)CCC(CN2CCN(c3ccc(C(=O)NS(=O)(=O)c4ccc(NCC5CCOCC5)c([N+](=O)[O-])c4)c(Oc4cnc5[nH]ccc5c4)c3)CC2)=C(c2ccc(Cl)cc2)C1 [Venetoclax] + C1CN(CCC1(C(=O)N[C@@H](CCO)C2=CC=C(C=C2)Cl)N)C3=NC=NC4=C3C=CN4 [Capivasertib] (first compound max 1 µM, 7x7, partner max 3 µM) | 0.134 | 0.591
CC1(C)CCC(CN2CCN(c3ccc(C(=O)NS(=O)(=O)c4ccc(NCC5CCOCC5)c([N+](=O)[O-])c4)c(Oc4cnc5[nH]ccc5c4)c3)CC2)=C(c2ccc(Cl)cc2)C1 [Venetoclax] + C[C@@H](Nc1cc(F)cc(F)c1)c1cc(C(=O)N(C)C)cc2c(=O)cc(N3CCOCC3)oc12 [AZD8186] (first compound max 1 µM, 7x7, partner max 3 µM) | 0.107 | 0.527
Cc1c2c(nn1C)CSCc1cc(n(C)n1)CSc1cc(c3ccccc3c1)OCCCc1c(C(=O)O)n(C)c3c-2c(Cl)ccc13 [AZD5991] + CC1(C)CCC(CN2CCN(c3ccc(C(=O)NS(=O)(=O)c4ccc(NCC5CCOCC5)c([N+](=O)[O-])c4)c(Oc4cnc5[nH]ccc5c4)c3)CC2)=C(c2ccc(Cl)cc2)C1 [Venetoclax] (first compound max 1 µM, 7x7, partner max 1 µM) | 0.147 | 0.732
CC1(C)CCC(CN2CCN(c3ccc(C(=O)NS(=O)(=O)c4ccc(NCC5CCOCC5)c([N+](=O)[O-])c4)c(Oc4cnc5[nH]ccc5c4)c3)CC2)=C(c2ccc(Cl)cc2)C1 [Venetoclax] + C[C@@H]1COCCN1C2=NC(=NC(=C2)C3(CC3)[S@](=N)(=O)C)C4=C5C=CNC5=NC=C4 [AZD6738] (first compound max 1 µM, 7x7, partner max 10 µM) | 0.233 | 0.954
CC1(C)CCC(CN2CCN(c3ccc(C(=O)NS(=O)(=O)c4ccc(NCC5CCOCC5)c([N+](=O)[O-])c4)c(Oc4cnc5[nH]ccc5c4)c3)CC2)=C(c2ccc(Cl)cc2)C1 [Venetoclax] + Cc1cc2ncnn2cc1Nc1ncc2c(n1)n(C1CCOCC1)c(=O)n2C [AZD7648] (first compound max 1 µM, 7x7, partner max 10 µM) | 0.164 | 0.317
COc1nnc2ccc(N3CCC(c4ccc(OCCN5CCN(C)C(=O)[C@H]5C)cc4)CC3)nn12 [AZD5153] + CN(CC[C@H](CSC1=CC=CC=C1)NC2=C(C=C(C=C2)S(=O)(=O)NC(=O)C3=CC=C(C=C3)N4CCC(CC4)[C@H](C5=CC=CC=C5C6=CC=C(C=C6)Cl)O)S(=O)(=O)C(F)(F)F)CCO [AZD4320] (first compound max 1 µM, 7x7, partner max 1 µM) | 0.299 | 0.893
CN(CCO)CC[C@H](CSc1ccccc1)Nc1ccc(S(=O)(=O)NC(=O)c2ccc(N3CCC([C@@H](O)c4ccccc4-c4ccc(Cl)cc4)CC3)cc2)cc1S(=O)(=O)C(F)(F)F [AZD4320] + Cn1cnc2c(F)c(Nc3ccc(Br)cc3Cl)c(C(=O)NOCCO)cc21 [Selumetinib] (first compound max 1 µM, 7x7, partner max 3 µM) | 0.435 | 0.84
CC1(C)CCC(CN2CCN(c3ccc(C(=O)NS(=O)(=O)c4ccc(NCC5CCOCC5)c([N+](=O)[O-])c4)c(Oc4cnc5[nH]ccc5c4)c3)CC2)=C(c2ccc(Cl)cc2)C1 [Venetoclax] + C=CCn1c(=O)c2cnc(Nc3ccc(N4CCN(C)CC4)cc3)nc2n1-c1cccc(C(C)(C)O)n1 [AZD1775] (first compound max 1 µM, partner max 1 µM) | 0.27 | 0.954
CN(CCO)CC[C@H](CSc1ccccc1)Nc1ccc(S(=O)(=O)NC(=O)c2ccc(N3CCC([C@@H](O)c4ccccc4-c4ccc(Cl)cc4)CC3)cc2)cc1S(=O)(=O)C(F)(F)F [AZD4320] + CCN(CCO)CCCOc1ccc2c(Nc3cc(CC(=O)Nc4cccc(F)c4)[nH]n3)ncnc2c1 [AZD2811] (first compound max 1 µM, 7x7, partner max 1 µM) | 0.378 | 0.827
CC1(C)CCC(CN2CCN(c3ccc(C(=O)NS(=O)(=O)c4ccc(NCC5CCOCC5)c([N+](=O)[O-])c4)c(Oc4cnc5[nH]ccc5c4)c3)CC2)=C(c2ccc(Cl)cc2)C1 [Venetoclax] + CN(C)CCCOc1ccc(-c2ccc3ncc4c(c3c2)n(C2CCOCC2)c(=O)n4C)cn1 [AZD0156] (first compound max 1 µM, 7x7, partner max 1 µM) | 0.194 | 0.189
Cc1c2c(nn1C)CSCc1cc(n(C)n1)CSc1cc(c3ccccc3c1)OCCCc1c(C(=O)O)n(C)c3c-2c(Cl)ccc13 [AZD5991] + Cn1cnc2c(F)c(Nc3ccc(Br)cc3Cl)c(C(=O)NOCCO)cc21 [Selumetinib] (first compound max 1 µM, 7x7, partner max 3 µM) | 0.151 | 0.675
CN(CCO)CC[C@H](CSc1ccccc1)Nc1ccc(S(=O)(=O)NC(=O)c2ccc(N3CCC([C@@H](O)c4ccccc4-c4ccc(Cl)cc4)CC3)cc2)cc1S(=O)(=O)C(F)(F)F [AZD4320] + C[C@@H](Nc1cc(F)cc(F)c1)c1cc(C(=O)N(C)C)cc2c(=O)cc(N3CCOCC3)oc12 [AZD8186] (first compound max 1 µM, 7x7, partner max 3 µM) | 0.375 | 0.789
Cc1c2c(nn1C)CSCc1cc(n(C)n1)CSc1cc(c3ccccc3c1)OCCCc1c(C(=O)O)n(C)c3c-2c(Cl)ccc13 [AZD5991] + C[C@@H](Nc1cc(F)cc(F)c1)c1cc(C(=O)N(C)C)cc2c(=O)cc(N3CCOCC3)oc12 [AZD8186] (first compound max 1 µM, 7x7, partner max 3 µM) | 0.24 | 0.718
Cc1c2c(nn1C)CSCc1cc(n(C)n1)CSc1cc(c3ccccc3c1)OCCCc1c(C(=O)O)n(C)c3c-2c(Cl)ccc13 [AZD5991] + Cc1cc2ncnn2cc1Nc1ncc2c(n1)n(C1CCOCC1)c(=O)n2C [AZD7648] (first compound max 1 µM, 7x7, partner max 10 µM) | 0.17 | 0.784
CC(=O)c1c(C)c2cnc(Nc3ccc(N4CCNCC4)cn3)nc2n(C2CCCC2)c1=O [Palbociclib] + CN(CC[C@H](CSC1=CC=CC=C1)NC2=C(C=C(C=C2)S(=O)(=O)NC(=O)C3=CC=C(C=C3)N4CCC(CC4)[C@H](C5=CC=CC=C5C6=CC=C(C=C6)Cl)O)S(=O)(=O)C(F)(F)F)CCO [AZD4320] (first compound max 10 µM, 7x7, partner max 1 µM) | 0.259 | 0.795

— the supplement of paper PMC11061612
